From US11987589B2, “Heterocyclic flavone derivatives, compositions, and methods related thereto” (Emory University, priority 2018, dated 2024)
“Also recorded” adds a separate entry of the source.

Experiments:
[1] = tested on: 5×FAD mice; assay: Synaptic loss and plasticity in 5×FAD mice (Golgi staining, electron microscopy, immunoblotting, LTP); assay type: in vivo, mouse
Method: The dendritic spines from apical dendritic layer of the CA1 region were analyzed by Golgi staining. (Scale bar, […]). On top is quantitative analysis of the spine density.
Synaptic loss is believed to be the basis of cognitive impairment in the early phase of Alzheimer's disease. […] The density of dendritic spines along individual dendrites of pyramidal neurons were assessed by Golgi staining. […] Since one dendritic spine can form more than one synapse, the densities of synapse in the CA1 area were quantified in 5×FAD mice brain by electron microscopy. […] Immunoblotting was done using pre-synaptic markers (synaptotagmin) and post-synaptic markers (GluR1, PSD95 and spinophilin).

[2] = in vivo; conditions: ICR, mouse, po, 5 mg/kg
Method: The compounds were orally administered into wild-type mice or 3×Tg, an Alzheimer's disease (AD) mouse model. […] Pharmacokinetic analysis was performed using non-compartmental methods.

[3] = BBB-PAMPA Permeability; assay type: in vitro ADME; conditions: Test Conc. 10 μM
[4] = tested on: T48 cells; assay: Protection from staurosporine (STS)-induced apoptosis, MTT assay, T48 cells; assay type: cell-based
Method: Cytoprotective effects were tested. To examine whether these compounds protect cells from staurosporine (STS)-induced apoptosis, MTT assays were conducted using TrkB stable transfected cells or TrkB deficient SN56 cells.

[5] = Hepatocyte Stability (mouse); conditions: hepatocytes
[6] = in vivo; conditions: mouse; for B/P Ratio, individual animal / Plasma concentration, Mean / Kp at 1 h / Kp at 2 h / Kp at 4 h: male; for Kp at 1 h / Kp at 2 h / Kp at 4 h: B/P Ratio
Method: The concentration ratio of brain/plasma was calculated, and PK analysis was performed using a non-compartmental method.

[7] = Microsomal Intrinsic Clearance (human); conditions: liver microsomes; for microsomal CLint: Human microsomes
[8] = tested on: TrkB; assay: Endogenous TrkB activation in DIV13 primary cortical cultures, immunoblotting; assay type: cell-based; conditions: 15 min
Method: Endogenous TrkB activation in primary neurons were tested in DIV13 primary cortical cultures. The neurons were treated with the two compounds with doses for 15 min. The lysates were analyzed by immunoblotting with antibodies.

[9] = In vitro plasma, hepatocyte and liver microsomal stability assays (summary statement); assay type: in vitro ADME
[10] = Hepatocyte Stability (human); conditions: hepatocytes
[11] = tested on: 5×FAD mice; assay: Morris water maze test in 5×FAD mice; assay type: in vivo, mouse
Method: The hippocampus-dependent spatial memory of 5×FAD mice was tested by Morris water maze test. The average latency and swim path length for each of the 5 acquisition days were calculated and plotted. […] The memory recall for the platform location was assessed in the probe trail when the platform was removed, and the mice were allowed to search for 60 s.

[12] = tested on: Delta-secretase (AEP, asparagine endopeptidase); assay: AEP activation and APP and Tau proteolytic cleavage in 5×FAD mice; assay type: in vivo, mouse
Method: The processing of APP and Tau by AEP was evaluated by western blot.
Delta-secretase (AEP, asparagine endopeptidase) cleaves both APP and Tau, mediating AD pathogenesis. […] To further investigate APP proteolytic cleavage activity by AEP, immunofluorescent co-staining was conducted on 5×FAD brain section with anti-APP C585 and AEP antibodies.

[13] = Plasma Stability (human); assay type: in vitro ADME
[14] = tested on: Aβ; assay: Aβ deposition in 5×FAD mice (immunohistochemistry, thioflavin-S, ELISA); assay type: in vivo, mouse
Method: The deposition of Aβ was tested by immunohistochemistry with anti-AP antibody.

[15] = Plasma Stability (mouse); assay type: in vitro ADME
[16] = Water solubility; assay type: physicochemical
[17] = biological target: T1, TrkB (Mus musculus, UniProt P15209); assay: TrkB activation in brain of 5×FAD mice after chronic oral administration; assay type: in vivo
T1 construct: from tissue; host or cells: brain (hippocampus) of 5xFAD mice
T1 sequence (P15209 32-821): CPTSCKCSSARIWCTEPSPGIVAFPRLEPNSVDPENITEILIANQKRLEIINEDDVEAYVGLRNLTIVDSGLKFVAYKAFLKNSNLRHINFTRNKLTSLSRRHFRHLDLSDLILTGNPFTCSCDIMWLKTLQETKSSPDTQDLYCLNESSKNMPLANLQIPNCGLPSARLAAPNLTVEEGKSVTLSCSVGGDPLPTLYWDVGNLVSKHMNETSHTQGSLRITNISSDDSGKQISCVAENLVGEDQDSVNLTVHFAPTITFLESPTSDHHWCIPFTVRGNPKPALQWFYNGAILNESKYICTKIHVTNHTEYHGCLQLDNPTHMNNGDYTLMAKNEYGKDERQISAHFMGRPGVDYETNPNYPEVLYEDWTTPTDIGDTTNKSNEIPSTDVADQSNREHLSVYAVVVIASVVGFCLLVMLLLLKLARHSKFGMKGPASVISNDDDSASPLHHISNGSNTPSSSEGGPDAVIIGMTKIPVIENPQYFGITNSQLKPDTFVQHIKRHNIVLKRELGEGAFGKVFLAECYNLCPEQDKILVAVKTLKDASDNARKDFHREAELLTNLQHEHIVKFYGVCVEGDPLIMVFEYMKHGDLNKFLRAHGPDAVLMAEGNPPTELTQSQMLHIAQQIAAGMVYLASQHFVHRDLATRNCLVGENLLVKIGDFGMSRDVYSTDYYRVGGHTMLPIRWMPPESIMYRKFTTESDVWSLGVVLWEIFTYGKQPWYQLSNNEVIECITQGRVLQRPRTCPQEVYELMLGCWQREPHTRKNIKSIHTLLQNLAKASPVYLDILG
Source text: After 3 months of drug treatment, TrkB activation was monitored in the mouse brain by immunofluorescence with anti-phosphorylated TrkB (p-TrkB) antibody.

[18] = biological target: T2, TrkB (Rattus norvegicus, UniProt Q63604); assay: TrkB activation in rat TrkB stably transfected SN56 cells (T48), immunoblotting; assay type: cell-based; conditions: treated 15 min, immunoblotting, read-out: EC50 of p-TrkB 706 and 816 activation
T2 construct: expressed in transfected cells
T2 sequence (Q63604 32-821): as the sequence (P15209 32-821) above, with T3M, S9T, A10T, V32I, R63K, S84G, M153T, L185I, S394T, S770N counted along it

[19] = tested on: IL-6; assay: Inflammatory factor IL-6 in 5×FAD mouse brains; assay type: in vivo
[20] = Microsomal Intrinsic Clearance (mouse); conditions: liver microsomes; for microsomal CLint: Mouse microsomes
[21] = ICR, iv, 2 mg/kg, individual animal
[22] = NADPH-dependent CLint, with NADPH

N#Cc1ccc(-c2cc(=O)c3ccc4[nH]c(C(F)(F)F)nc4c3o2)cc1 [CF3-CN, 4-(6-oxo-2-(trifluoromethyl)-3,6-dihydrochromeno[7,8-d]imidazol-8-yl)benzonitrile]
LTP (long-term potentiation) ([1]; fEPSPs induced by 3×TBS, vs vehicle): increased LTP; also recorded: reversed the LTP impairment | synaptic markers (synaptotagmin, GluR1, PSD95, spinophilin), immunoblotting ([1]; repeated oral administration): reversed the reduction of synaptic markers | synaptic density (electron microscopy) ([1]; repeated oral administration, CA1 area): remarkably reversed the loss of synaptic density in a dose-dependent way | density of dendritic spines (Golgi staining) ([1]; repeated oral administration, CA1 region): noticeably rescued; also recorded: prevents or reverses the synaptic loss | AUC [2]: 68500 ng·h/mL | Pe [3]: 3.09 | recovery at 10 μM [3]: 89.9% | EC50 [4]: 0.0267 µM | Avg % Remaining at Last Point [5]: 94.8% | half-life [5]: > 8 h | hepatocyte CLint [5]: < 2.9 µL/min/1e6 cells | Cmax ([6]; ICR, iv, 2 mg/kg): 12700 ng/mL | Tmax ([6]; ICR, iv, 2 mg/kg): 4.8 min | B/P Ratio, individual animal ([6]; ICR, iv, 2 mg/kg, 1 h): 0.01 | Plasma concentration, Mean ([6]; ICR, iv, 2 mg/kg, 1 h): 5288.5 ng/mL | B/P Ratio, individual animal ([6]; ICR, iv, 2 mg/kg, 2 h): 0.01 | Plasma concentration, Mean ([6]; ICR, iv, 2 mg/kg, 2 h): 2154.5 ng/mL | Plasma concentration, Mean ([6]; ICR, iv, 2 mg/kg, 4 h): 544.8 ng/mL | Kp at 1 h ([6]; ICR, iv, 2 mg/kg, Mean): 0.01 | Kp at 2 h ([6]; ICR, iv, 2 mg/kg, Mean): 0.01 | Kp at 4 h ([6]; ICR, iv, 2 mg/kg, Mean): 0.02 | Kp at 1 h [6, 21]: 0.02 | Kp at 2 h [6, 21]: 0.01 | Kp at 4 h [6, 21]: 0.02 | passage of the blood-brain barrier [6]: can pass the blood-brain barrier | microsomal CLint [7, 22]: < 12.8 µL/min/mg | half-life ([7]; NADPH-dependent T1/2, Human microsomes, with NADPH): > 3 h | microsomal CLint ([7]; NADPH-free CLint, NADPH-free): < 12.8 µL/min/mg | half-life ([7]; NADPH-free T1/2, Human microsomes, NADPH-free): > 3 h | TrkB activation in primary neurons [8]: dose-dependent effect in triggering TrkB activation | stability (comparison) [9]: more stable than RM-CN | Avg % Remaining at Last Point [10]: 97.2% | half-life [10]: > 8 h | hepatocyte CLint [10]: < 2.9 µL/min/1e6 cells | learning impairment, area under curve (AUC) of latency ([11]; Morris water maze, 5 acquisition days): attenuated; also recorded: improves the spatial learning and memory | AUC of the swim path distance ([11]; Morris water maze, no significant statistic differences): reduction trend | percentage of time spent in target quadrant ([11]; probe trial, 60 s): significantly higher percentage of time in the target quadrant | Tau N368 staining ([12]; 5×FAD brain section): repressed | APP C585 immuno-signals ([12]; 5×FAD brain section, immunofluorescent co-staining): strongly inhibited | AEP activity (enzymatic assay) ([12]; 5×FAD mice, 3 mg/kg): blocked | AEP expression in Hippocampus ([12]; 5×FAD mice, immunofluorescence): progressively attenuated | Mature and active AEP (immunoblotting) ([12]; 5×FAD mouse brains): decreased; also recorded: significantly inhibited AEP activation | AEP-cleaved APP N373, N585 and Tau N368 truncates ([12]; 5×FAD mouse brains, western blot): reduction; also recorded: attenuated Tau and APP cleavage | Avg % Remaining at Last Point [13]: 94.2% | half-life [13]: > 8 h | number of plaques and plaque area fraction ([14]; cortex and hippocampus, vs vehicle control): significantly decreased | Aβ42 concentrations (ELISA) ([14]; differences not statistically significant): reduction trend | Aβ deposition (immunohistochemistry) ([14]; oral, vs vehicle group): significantly lower; also recorded: decreases Aβ plaque deposition | Avg % Remaining at Last Point [15]: 107% | half-life [15]: > 8 h | water solubility (comparison) [16]: more water soluble than RM-CN | TrkB activation in the hippocampus ([17]; oral 3 mg/kg, anti-p-TrkB Y816 immunofluorescence): provoked TrkB activation in the hippocampus | total TrkB level in mouse brain ([17]; oral, 3 months of treatment): not total TrkB level were notably elevated | TrkB activation (p-TrkB signals) in mouse brain ([17]; oral, 3 months of treatment, vs vehicle): markedly activated | phosphorylation of TrkB receptors and downstream AKT and ERK/MAPK pathways ([17]; oral, 3 months, vs vehicle control): more prominently phosphorylated | EC50 [18]: 0.0216 µM | inflammatory factors IL-6 [19]: repressed | microsomal CLint [20, 22]: < 12.8 µL/min/mg | half-life ([20]; NADPH-dependent T1/2, Mouse microsomes, with NADPH): > 3 h | microsomal CLint ([20]; NADPH-free CLint, NADPH-free): < 12.8 µL/min/mg | half-life ([20]; NADPH-free T1/2, Mouse microsomes, NADPH-free): > 3 h
